The NIST ThermoML archive (doi:10.1016/j.jct.2011.06.013)

Experiments:
[1] = xn = mol fraction of the nth substance listed; details: 101 kPa, Liquid; for viscosity: Falling or rolling sphere viscometry
[2] = 101.33 kPa, Liquid; for viscosity: Falling or rolling sphere viscometry

OCCOCCOCCO [triethylene glycol] + OCCOCCO
mass density [kg/m3], [1]
Details	298.15 K	322.43 K	355.15 K	391.02 K	432.13 K	473.1 K
Buoyancy - hydrostatic balance, x2 = 0.5	1116.28	1104.5	1083.98	1055.33	1014.59	965.58
Pycnometric method, x1 = 0.5	1115.61	–	–	–	–	–

[1], x1 = 0.5
Details	viscosity [mPa·s]
298.15 K	32.4
322.43 K	11.71
355.15 K	4.468
391.02 K	2.179
432.13 K	1.172
473.1 K	0.716

OCCOCCO [diethylene glycol]
mass density [kg/m3], [2]
Details	Buoyancy - hydrostatic balance	Pycnometric method
293.15 K	1117.04	1117.04
298.15 K	1114.02	–
312.6 K	1104.9	–
313.15 K	–	1104.54
314.15 K	–	1103.88
329.28 K	1093.62	–
333.25 K	–	1090.82
334.85 K	–	1089.68
344.99 K	1082.27	–
349.77 K	1078.67	–
352.55 K	–	1076.55
352.85 K	–	1076.32
366.77 K	1065.35	–
367.25 K	–	1064.96
381.65 K	–	1053.01
411.05 K	–	1026.74
413.65 K	1024.3	–
434.45 K	–	1004.06
464.05 K	973.11	–

[2]
Details	viscosity [mPa·s]
293.15 K	36.52
298.15 K	28.36
312.6 K	15.25
329.28 K	8.458
344.99 K	5.34
349.77 K	4.809
366.77 K	3.231
413.65 K	1.409
464.05 K	0.789

OCCOCCO [diethylene glycol] + OCCO
mass density [kg/m3], [1]
Details	298.15 K	318.55 K	322.34 K	333.45 K	353.83 K	367.15 K	392.87 K	436.08 K	462.75 K
Buoyancy - hydrostatic balance, x2 = 0.5	1112.21	–	1097.38	–	1075.19	–	1043.14	1001.82	973.24
Pycnometric method, x1 = 0.5	1112.21	1099.83	–	1089.92	–	1064.82	–	–	–

[1], x1 = 0.5
Details	viscosity [mPa·s]
298.15 K	21.12
322.34 K	8.316
353.83 K	3.488
392.87 K	1.641
436.08 K	0.885
462.75 K	0.671

OCCOCCOCCO [triethylene glycol]
[2]
Details	mass density [kg/m3]
293.15 K, Pycnometric method	1123.06
298.15 K, Buoyancy - hydrostatic balance	1119.75
312.96 K, Buoyancy - hydrostatic balance	1109.61
313.15 K, Pycnometric method	1109.47
314.15 K, Pycnometric method	1108.77
333.25 K, Pycnometric method	1094.96
334.85 K, Pycnometric method	1093.76
334.96 K, Buoyancy - hydrostatic balance	1093.69
349.25 K, Buoyancy - hydrostatic balance	1082.8
352.55 K, Pycnometric method	1080.21
352.85 K, Pycnometric method	1079.98
364.44 K, Buoyancy - hydrostatic balance	1070.74
367.25 K, Pycnometric method	1068.46
381.45 K, Pycnometric method	1056.66
411.65 K, Pycnometric method	1030.16
413.73 K, Buoyancy - hydrostatic balance	1028.27
433.75 K, Pycnometric method	1009.54
461.56 K, Pycnometric method	982.12
462.25 K, Buoyancy - hydrostatic balance	981.42
476.35 K, Pycnometric method	966.87

[2]
Details	viscosity [mPa·s]
298.15 K	36.82
312.96 K	19.03
334.96 K	9.002
349.25 K	5.945
364.44 K	4.131
413.73 K	1.679
462.25 K	0.997

OCCOCCOCCO [triethylene glycol] + OCCO
mass density [kg/m3], [1]
Details	298.13 K	298.15 K	322.36 K	355.34 K	392.2 K	434.59 K	462.61 K
Buoyancy - hydrostatic balance, x2 = 0.5	1115.1	–	1101.75	1079	1047.37	1002.88	968.72
Pycnometric method, x1 = 0.5	–	1115.45	–	–	–	–	–

[1], x1 = 0.5
Details	viscosity [mPa·s]
298.13 K	26.24
322.36 K	10.13
355.34 K	3.999
392.2 K	1.946
434.59 K	1.058
462.61 K	0.705

OCCO [1,2-ethanediol]
mass density [kg/m3], [2]
Details	Buoyancy - hydrostatic balance	Pycnometric method
293.15 K	1113.58	1113.58
312.46 K	1100.88	–
314.45 K	–	1099.52
333.25 K	–	1086.3
333.55 K	–	1086.09
334.87 K	1085.13	–
349.24 K	1074.46	–
352.85 K	–	1071.71
353.65 K	–	1071.1
357.05 K	–	1068.48
365.7 K	1061.7	–
367.25 K	–	1060.47
380.82 K	1049.47	–
381.45 K	–	1048.95
395.55 K	1037.07	–
411.65 K	–	1023
421.7 K	1013.93	–
433.75 K	–	1002.77
461.55 K	–	975.83
464.4 K	972.98	–

[2]
Details	viscosity [mPa·s]
293.15 K	21.1
312.46 K	9.925
334.87 K	4.949
349.24 K	3.517
365.7 K	2.39
380.82 K	1.815
395.55 K	1.419
421.7 K	0.96
464.4 K	0.652
